MIC and ED50 data for 4 molecules are collected here from ChEMBL document CHEMBL1124193, “Synthesis and bacterial DNA gyrase inhibitory properties of a spirocyclopropylquinolone derivative” (J Med Chem, 1988).

≈ marks a conversion by molar mass, not a printed value.

Common to all, as to format: functional
The test system of one test is Bacteroides fragilis. Description: In vitro minimum inhibitory concentration against Bacteroides fragilis (ATCC 25285).
The next test concerns Escherichia coli. Description: In vitro minimum inhibitory concentration against Escherichia coli (ATCC […]25922).
Test [1] deals with Mus musculus. Description: In vivo antibacterial activity against Escherichia coli (Vogel) in mice administered perorally. Particulars: po, read-out: PD50.
In another test the test system is Pseudomonas aeruginosa. The test can be described thus: In vitro minimum inhibitory concentration against Pseudomonas aeruginosa (ATCC 27853).
The next test concerns Enterococcus faecalis. Description: In vitro minimum inhibitory concentration against Streptococcus faecalis (ATCC 29212).
In another test the test system is Streptococcus pneumoniae. Description: In vitro minimum inhibitory concentration against Streptococcus pneumoniae (ATCC 6301).
Test [2] relates to Mus musculus. Description: In vivo antibacterial activity against Escherichia coli (Vogel) in mice administered subcutaneously. The following applies: sc, read-out: PD50.
The next test relates to Staphylococcus aureus. Description: In vitro minimum inhibitory concentration against Staphylococcus aureus (ATCC 29213).

What is called MIC is the least concentration at which growth counts as inhibited. The low end stands for a more susceptible organism, the high end for a less susceptible organism. For `CN1CCN(c2c(F)cc3c(=O)c(C(=O)O)cn4c3c2OCC42CC2)CC1`, the minimal inhibitory concentration (MIC) with Bacteroides fragilis was 8 µg/mL (≈ 21.4 µM); against Escherichia coli, 0.125 µg/mL (≈ 0.335 µM); against Pseudomonas aeruginosa, 4 µg/mL (≈ 10.7 µM); in the test on Enterococcus faecalis, 8 µg/mL (≈ 21.4 µM); against Streptococcus pneumoniae it was 8 µg/mL (≈ 21.4 µM); with Staphylococcus aureus, 2 µg/mL (≈ 5.36 µM). In addition, the ED50 worked out at 6.3 mg/kg in the test with Mus musculus [1] and 1.9 mg/kg in the test with Mus musculus [2].
As to `O=C(O)c1cn(C2CC2)c2cc(N3CCNCC3)c(F)cc2c1=O` [CIPROFLOXACIN], the MIC in the test on Bacteroides fragilis stood at 2 µg/mL (≈ 6.04 µM); against Enterococcus faecalis, 0.5 µg/mL (≈ 1.51 µM); against Streptococcus pneumoniae, 0.25 µg/mL (≈ 0.754 µM); against Staphylococcus aureus, 0.25 µg/mL (≈ 0.754 µM). In addition, the figures for the ED50 in the test on Mus musculus [1] and in the test on Mus musculus [2] were 0.86 mg/kg and 0.2 mg/kg, respectively.
On to `C[C@H]1COc2c(N3CCN(C)CC3)c(F)cc3c(=O)c(C(=O)O)cn1c23.C[C@H]1COc2c(N3CCN(C)CC3)c(F)cc3c(=O)c(C(=O)O)cn1c23.O` [LEVOFLOXACIN], for which the MIC with Bacteroides fragilis was determined as 16 µg/mL; against Pseudomonas aeruginosa it was 32 µg/mL; against Enterococcus faecalis, 16 µg/mL; in the test with Staphylococcus aureus, 2 µg/mL. For the same molecule, the values for the ED50 in the test on Mus musculus [1] and in the test on Mus musculus [2] were 10.1 mg/kg and 3.8 mg/kg, respectively.
As for `CC1COc2c(N3CCN(C)CC3)c(F)cc3c(=O)c(C(=O)O)cn1c23` (stereo unspecified) [OFLOXACIN], the minimum inhibitory concentration (MIC) in the test on Bacteroides fragilis came to 0.5 µg/mL (≈ 1.38 µM); with Pseudomonas aeruginosa, 0.5 µg/mL (≈ 1.38 µM); against Enterococcus faecalis, 2 µg/mL (≈ 5.53 µM); against Staphylococcus aureus, 0.25 µg/mL (≈ 0.692 µM). The results for the ED50 in the test on Mus musculus [1] and in the test on Mus musculus [2] were 2.2 mg/kg and 1.2 mg/kg, respectively.
